In test [1] the test system is Human immunodeficiency virus. Description: Antiviral activity against HIV infected in human MT4 cells assessed as inhibition of virus-induced cytopathogenicity by MTT assay. Type of test: functional, organism-based. (Protection from cytopathic effect is a common read-out in antiviral testing.)
For test [2], the system named is Escherichia coli. Kind of test: Antibacterial activity against Escherichia coli ATCC 25922 after overnight incubation by twofold broth dilution technique. Type of test: functional. Background: Dilution methods test growth across graded concentrations, often in twofold steps.
Test [3] relates to Streptococcus pneumoniae. Kind of test: Antibacterial activity against Streptococcus pneumoniae expressing PenR gene after overnight incubation by twofold broth dilution technique in presence of 2.5% blood. Type of test: functional.
Test [4] deals with Staphylococcus aureus. Kind of test: Antibacterial activity against Staphylococcus aureus ATCC 25923 after overnight incubation by twofold broth dilution technique in presence of 50% human serum. Type of test: functional.
Test [5] deals with Streptococcus pneumoniae. Kind of test: Antibacterial activity against Streptococcus pneumoniae ATCC 49619 after overnight incubation by twofold broth dilution technique. Type of test: functional.
The subject of test [6] is Enterococcus faecalis. Description: Antibacterial activity against Enterococcus faecalis ATCC 29212 expressing VanS gene after overnight incubation by twofold broth dilution technique. Type of test: functional.
Test [7] has as its system Pseudomonas aeruginosa. Kind of test: Antibacterial activity against Pseudomonas aeruginosa ATCC 27853 after overnight incubation by twofold broth dilution technique. Type of test: functional.
In test [8] the test system is Staphylococcus aureus. Kind of test: Antibacterial activity against Staphylococcus aureus ATCC 25923 after overnight incubation by twofold broth dilution technique in presence of 10% human serum. Type of test: functional.
For test [9], the system named is Haemophilus influenzae. Description: Antibacterial activity against Haemophilus influenzae ATCC 31517 after overnight incubation by twofold broth dilution technique. Type of test: functional.
Test [10] has as its system Staphylococcus aureus. Kind of test: Antibacterial activity against Staphylococcus aureus after overnight incubation by twofold broth dilution technique. Type of test: functional.
Test [11] has as its system Staphylococcus aureus. Kind of test: Antibacterial activity against Staphylococcus aureus ATCC 25923 after overnight incubation by twofold broth dilution technique. Type of test: functional.
For test [12], the system named is Enterococcus faecium. Kind of test: Antibacterial activity against Enterococcus faecium expressing VanA gene after overnight incubation by twofold broth dilution technique. Type of test: functional.
For test [13], the system named is Streptococcus pneumoniae. Description: Antibacterial activity against Streptococcus pneumoniae expressing PenR gene after overnight incubation by twofold broth dilution technique. Type of test: functional.
Test [14] has as its system Staphylococcus aureus. Kind of test: Antibacterial activity against Staphylococcus aureus ATCC 13709 after overnight incubation by twofold broth dilution technique. Type of test: functional.
Test [15] has as its system Staphylococcus aureus. Description: Antibacterial activity against methicillin-resistant Staphylococcus aureus after overnight incubation by twofold broth dilution technique. Type of test: functional.

Drawing on ChEMBL document CHEMBL1933053, “Efficient microwave-assisted synthesis, antibacterial activity and high fluorescence of 5 benzimidazolyl-2'-deoxyuridines” (2012), this text covers inhibition and MIC for ten molecules.

Each structure is given as a SMILES string. Values after ≈ are worked out from the molar mass of the structure shown. Active and inactive are the calls of the source. No cut-off for these calls is given here.

Turning to `O=c1[nH]c(=O)n([C@H]2C[C@H](O)[C@@H](CO)O2)cc1-c1nc2ccccc2[nH]1`, the inhibition entry in [1] was “inactive”. Besides, the MIC in test [2], in test [3], in test [4], in [5], in [6] and in [7] was greater than 64 µg/mL in each case. The MIC in test [8], in [9], in test [10], in test [11], in test [12] and in test [13] was greater than 64 µg/mL each time. This molecule also yielded an MIC in test [14] greater than 64 µg/mL.
Consider `O=c1[nH]c(=O)n([C@H]2C[C@H](O)[C@@H](CO)O2)cc1-c1nc2cc(C(F)(F)F)cc(Cl)c2[nH]1`, for which the inhibition result in test [1] is “inactive”. The MIC in [2] is greater than 64 µg/mL; in test [3] it was 16 µg/mL; in [4], greater than 64 µg/mL; in [5] it was 4 µg/mL (≈ 8.95 µM); in test [6] it was 2 µg/mL (≈ 4.48 µM); in test [7], greater than 64 µg/mL. The MIC is 2 µg/mL (≈ 4.48 µM) in test [15]; greater than 64 µg/mL in [8]; greater than 64 µg/mL in [9]; 2 µg/mL (≈ 4.48 µM) in test [10]; 2 µg/mL (≈ 4.48 µM) in test [11]; 1 µg/mL (≈ 2.24 µM) in test [12]. In addition, the MIC was 4 µg/mL (≈ 8.95 µM) in [13] and 2 µg/mL (≈ 4.48 µM) in [14].
Turning to `COc1ccc2nc(-c3cn([C@H]4C[C@H](O)[C@@H](CO)O4)c(=O)[nH]c3=O)[nH]c2c1`, the inhibition result in [1] is “inactive”. Moreover, the MIC in test [2], in test [3], in test [4], in test [5], in [6] and in test [7] was greater than 64 µg/mL throughout. For the same molecule, the MIC in test [8], in test [9], in test [10], in [11], in [12] and in test [13] was greater than 64 µg/mL each time. In test [14], this molecule gave an MIC greater than 64 µg/mL.
Turning to `O=c1[nH]c(=O)n([C@H]2C[C@H](O)[C@@H](CO)O2)cc1-c1nc2ccc(F)cc2[nH]1`, the inhibition entry in test [1] is “inactive”. Also, the MIC in [2], in [3], in test [4], in test [5], in test [6] and in test [7] was greater than 64 µg/mL each time. In addition, the MIC in test [8], in [9], in test [10], in test [11], in test [12] and in [13] was greater than 64 µg/mL in each case. This molecule registered an MIC in test [14] greater than 64 µg/mL.
Take `O=c1[nH]c(=O)n([C@H]2C[C@H](O)[C@@H](CO)O2)cc1-c1nc2cc3ccccc3cc2[nH]1`: in test [1], the inhibition entry is “inactive”. Further, the MIC in [2], in [3], in test [4], in test [5], in [6] and in [7] was greater than 64 µg/mL each time. For the same molecule, the MIC in [8], in [9], in test [10], in test [11], in [12] and in test [13] was greater than 64 µg/mL in each case. The MIC in test [14] was greater than 64 µg/mL.
For `Cc1ccc2nc(-c3cn([C@H]4C[C@H](O)[C@@H](CO)O4)c(=O)[nH]c3=O)[nH]c2c1`, the inhibition entry in test [1] is “inactive”. Further, the MIC in [2], in [3], in test [4], in test [5], in test [6] and in test [7] was greater than 64 µg/mL in each case. Moreover, the MIC in test [8], in [9], in test [10], in test [11], in test [12] and in test [13] was greater than 64 µg/mL in each case. The molecule further showed an MIC in test [14] greater than 64 µg/mL.
As to `O=c1[nH]c(=O)n([C@H]2C[C@H](O)[C@@H](CO)O2)cc1-c1nc2ccc(C(F)(F)F)cc2[nH]1`, in test [1], the inhibition entry was “inactive”. The MIC was greater than 64 µg/mL in test [2]; 64 µg/mL in [3]; greater than 64 µg/mL in [4]; 64 µg/mL (≈ 155 µM) in test [5]; greater than 64 µg/mL in test [6]; greater than 64 µg/mL in test [7]. Moreover, the MIC in test [8] was greater than 64 µg/mL; in test [9], 4 µg/mL (≈ 9.7 µM); in [10], greater than 64 µg/mL; in test [11], greater than 64 µg/mL; in [12], 64 µg/mL (≈ 155 µM); in test [13], 32 µg/mL (≈ 77.6 µM). Further, the MIC in [14] was greater than 64 µg/mL.
For the molecule `CC(=O)NC[C@H]1CN(c2ccc(N3CCOCC3)c(F)c2)C(=O)O1` [LINEZOLID], the MIC is greater than 32 µg/mL in [2]; 0.25 µg/mL in test [3]; greater than 32 µg/mL in [7]; 1 µg/mL (≈ 2.96 µM) in test [15]; 1 µg/mL in [8]; 16 µg/mL (≈ 47.4 µM) in [9]. For the same molecule, the MIC in test [10] came to 1 µg/mL (≈ 2.96 µM); in test [11], 1 µg/mL (≈ 2.96 µM); in test [12], 0.5 µg/mL (≈ 1.48 µM); in test [14], 1 µg/mL (≈ 2.96 µM).
For the molecule `O=c1[nH]c(=O)n([C@H]2C[C@H](O)[C@@H](CO)O2)cc1-c1nc2c3ccccc3c3ccccc3c2[nH]1`, the inhibition result in test [1] was “inactive”. Further, the MIC in test [2], in test [3], in test [4], in test [5], in test [6] and in test [7] was greater than 64 µg/mL in each case. Further, the MIC in [8], in test [9], in test [10], in test [11], in test [12] and in test [13] was greater than 64 µg/mL throughout. In [14], this molecule had an MIC greater than 64 µg/mL.
In the case of `O=C(O)c1cn(C2CC2)c2cc(N3CCNCC3)c(F)cc2c1=O` [CIPROFLOXACIN], the MIC in test [2] is no more than 0.03 µg/mL; in test [4] it was 0.5 µg/mL; in [5], 1 µg/mL (≈ 3.02 µM); in test [6], 0.5 µg/mL (≈ 1.51 µM); in [15], 8 µg/mL (≈ 24.1 µM); in [8] it was 0.25 µg/mL. In addition, the MIC in test [9] was no more than 0.03 µg/mL; in test [10] it was 0.12 µg/mL (≈ 0.362 µM); in test [11], 0.25 µg/mL (≈ 0.754 µM); in test [12], 16 µg/mL (≈ 48.3 µM); in test [14], 0.12 µg/mL (≈ 0.362 µM).
